From publication PMC5078989, “Targeted inhibition of the COP9 signalosome for treatment of cancer” (Nature Communications, 2016) come the findings set out here.

One assay deals with HCT116 cells. Nature of the assay: Immunoblotting of cullins, CRL components and substrates in HCT116 cells. The assay is classed as cell-based, human. As to conditions: qualitative western blot analysis. As to the method:
Figure 2 CSN5 inhibition results in the inactivation of a subset of CRLs and the stabilization of their substrates. Effect on CRL components and substrates after treatment of HCT116 cells with either 1 μM MLN4924 or 1 μM CSN5i-3. (a) Immunoblottings for Cul1 and its CRL components Rbx and Skp1; (b) for cullins Cul2, Cul3 and Cul4A; (c) for F-box protein Skp2 and the SCF^Skp2 substrates p21 and p27; (d) for F-box proteins Fbxo22 and Fbxo30; (e) for F-box protein βTrCP and the SCF^βTrCP substrates Wee1 and pIκBα; (f) for the adaptor KEAP1 and the Cul3^KEAP1 substrate Nrf2; (g) for F-box proteins Fbxw7 and Fbxo3.
Cells were maintained in a humidified incubator at 37 °C and 5% CO2. HCT116 cells (ATCC #CCL-247) were grown in McCoy's 5A medium (GIBCO #16600–082) supplemented with 10% fetal bovine serum (FBS), TE-1 (RIKEN BioResource Center, #RCB1894), NCI-H2030 (ATCC #CRL-591), SU-DHL-1 (DMSZ #ACC 356), NOMO-1 (HSRRB #IFO50474) and NCIH196 cells (ATCC, #CRL-5823) in RPMI-1640 medium (GIBCO#61870–010) supplemented with 10% FBS, 10 mM HEPES, 1 mM sodium pyruvate and THP-1 cells (ATCC #TIB-202) with additional 0.05 mM 2-mercaptoethanol. DMS273 cells (ECACC #950628) were cultured in Waymouth's MB 752/1 medium (GIBCO#11220–035) supplemented with 10% FBS. All cells were negatively tested for mycoplasma contamination either by the vendor or in house. For treatment with compounds, sub-confluent cells were either treated with inhibitors at the indicated concentrations or mock treated with an equivalent amount of DMSO (final content 0.1%). If not stated otherwise, cells were harvested after incubation for 16 h and subjected to SDS–PAGE and western blotting. The RNA interference experiment was performed with CSN5 stealth siRNA (#HSS116986) and stealth negative control siRNA (#12935–400) (Invitrogen), which were transfected at 10 nM into HCT116 cells using HiperFect (Qiagen) according to the manufacturer's protocols. Seventy-two hours after transfection, cells were harvested and subjected to SDS–PAGE and western blotting (see Supplementary Fig. 7 for all western blottings performed).
For further analysis, cell lysates were prepared by direct lysis with 2 × Sample buffer (65.8 mM Tris-HCl, pH 6.8, 2.1% SDS, 26.3% glycerol, 0.01% bromophenol blue and 20 mM DTT). Protein lysates from tumour powder were prepared in RIPA buffer (50 mM Tris-HCl pH 8.0, 150 mM NaCl, 1% Triton X-100, 2 mM EDTA, 0.5% sodium deoxycholate and 0.1% SDS) supplemented with 10 mM N-ethylmaleimide, protease inhibitor and phosphatase inhibitor cocktails (Roche Diagnostics). Cells from longer compound incubations were also lysed in RIPA buffer, which allows the protein concentration to be determined by BCA Protein Assay Kit (Pierce). Proteins were separated by SDS–PAGE using 4–20% Tris-Glycine Gels (Invitrogen) and subsequently transferred to polyvinylidene difluoride membranes using a Trans-Blot Turbo System (BioRad). […] Horseradish peroxidase-conjugated secondary antibodies (1:3,000) were purchased from Promega AG and bound antibody was detected by enhanced chemiluminescence (Pierce).
Background: A western blot detects proteins with antibodies after separation by electrophoresis.

In assay [1] the test system is panel of cancer cell lines. The assay is described as follows: Cell viability (CellTiter-Glo) dose-response across cancer cell line panel.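 Note: after 72 h compound incubation with CellTiter-Glo ATP readout.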 The class given is cell-based, human. Particulars: SNB-19. An excerpt:
Next, we explored the effect of CSN5 inhibition on the viability of cancer cells. To obtain a comprehensive picture, we generated dose–response curves with a CSN5 inhibitor across more than 500 cancer cell lines in a previously described standardized setting[47] (Supplementary Data 1).
A standardized CellTiter-Glo Assay (Promega #G7570) based on the quantification of ATP was applied according to the manufacturer's protocol to measure the amount of viable cells in culture. In brief, cells were seeded into 384-well plates at optimal density for each cell line. After 4 h, compounds were added at different concentrations in growth medium and incubated for another 72 h in a humidifying chamber at 37 °C and 5% CO2. […] EC50 values were calculated from the plot of percentage of inhibition versus inhibitor concentration using the nonlinear regression analysis software Origin 7.5SR6 (OriginLab Corp.).

The structures appear in SMILES notation.

Usually EC50 stands for the concentration giving half of the maximal effect. Higher therefore signals a less potent agent.

On to `N#Cc1ccc([C@H]2[C@@H](O)CCCc3cncn32)c(-c2ccccc2)c1` (relative stereo) [CSN5i-1a, Cis-6-(6-Hydroxy-6,7,8,9-tetrahydro-5H-imidazo[1,5-a]azepin-5-yl)-[1,1′-biphenyl]-3-carbonitrile], for which, in the assay with HCT116 cells, the “cullin-1 (Cul1) deneddylation in HCT116 cells” value is on record as “weakly inhibited”.

As for `CC(C)C[C@H](NC(=O)[C@H](Cc1ccccc1)NC(=O)c1cnccn1)B(O)O` [Botezomib], the concentration for a half-maximal effect (EC50) in assay [1] was found to be 9.53 nM.
